# Measured values from US4382142A, “Thiadiazole derivatives and process for preparing same” (Kowa Co., Ltd., priority 1978, dated 1983).
# Structures can show the parent of a compound that is named as a salt. Where two headings read alike, the source gives them in different places.
# What was measured:
# [1] = Acute toxicity (LD50, Litchfield-Wilcoxon method) after intraperitoneal injection in ddy mice; details: mouse, in vivo, ip
# Experimental: The median lethal dose (LD50) of each of the test compounds was
# determined by the LitchfieldWilcoxon method after the intraperitoneal
# injection of the compound into ddy mice.
# [2] = system: P388 leukemia; test: Antitumor test: survival of CDF1 mice inoculated intraperitoneally with P388 leukemia; format: in vivo; details: Mus musculus, ip, i.p., 24 hours and 5 days after inoculation, 10^6 P388 i.p., read-out: Survival Effect (survival days of treated relative to control animals); for response vs control in vivo at 200 mg/kg: 200 mg/kg/day; for response vs control in vivo at 400 mg/kg: 400 mg/kg/day
# Experimental: Each experimental group was composed of six CDF1 mice. The mice were
# inoculated intraperitoneally with 10^6 P388 leukemia, and the test
# compounds dissolved in a physiological salt solution were administered
# intraperitoneally to the animals 24 hours and 5 days, respectively, after
# the inoculation. The survival effect of each of the compounds was
# expressed by the percentage of the survival days of the treated animals i
# each group relative to those of the control animals.
# [3] = intraperitoneal, ddy mice, read-out: Acute Toxicity LD50
SMILES,"LD50 [1, 3] [mg/kg]",response vs control in vivo at 200 mg/kg [2] [%],response vs control in vivo at 400 mg/kg [2] [%],LD50 [1] [mg/kg],response vs control in vivo at 460 mg/kg ([2]; 460 mg/kg/day) [%],response vs control in vivo at 600 mg/kg ([2]; 600 mg/kg/day) [%],response vs control in vivo at 100 mg/kg ([2]; 100 mg/kg/day) [%]
"N[C@@H](Cc1ccccc1)C(=O)Nc1nncs1 [M, 2L-Phenylalanylamino-1,3,4-thiadiazole.hydrobromide]",1200,145,156,–,–,–,–
"CCC(C)C(N)C(=O)Nc1nncs1 (stereo not drawn) [D, 2DL-Isoleucylamino-1,3,4-thiadiazole.dihydrochloride]",–,157,–,357,–,–,–
"CC(C)[C@@H](N)C(=O)Nc1nncs1 [G, 2D-Valylamino-1,3,4-thiadiazole.hydrochloride]",–,93,102,> 500,–,–,–
"CC(C)[C@H](N)C(=O)Nc1nncs1 [F, 2L-Valylamino-1,3,4-thiadiazole.hydrochloride]",–,183,190,> 500,–,–,–
"CC(C)C[C@H](N)C(=O)Nc1nncs1 [B, 2L-Leucylamino-1,3,4-thiadiazole.hydrochloride]",–,144,161,> 500,–,–,–
"CC(C)C(N)C(=O)Nc1nncs1 (stereo not drawn) [E, 2DL-Valylamino-1,3,4-thiadiazole.hydrochloride]",–,143,155,> 1600,–,–,–
"CC(C)CC(N)C(=O)Nc1nncs1 (stereo not drawn) [A, 2DL-Leucylamino-1,3,4-thiadiazole.hydrochloride]",–,141,154,> 1600,–,–,–
"N[C@@H](CC(=O)O)C(=O)Nc1nncs1 [K, 2L-Aspartylamino-1,3,4-thiadiazole.monohydrate]",–,–,–,> 1600,116,119,–
"NC(C(=O)Nc1nncs1)c1ccccc1 (stereo not drawn) [I, 2Dl-Phenylglycylamino-1,3,4-thiadiazole.hydrobromide]",–,125,146,> 1600,–,–,–
"N[C@@H](Cc1c[nH]c2ccccc12)C(=O)Nc1nncs1 [L, 2L-Tryptophylamino-1,3,4-thiadiazole.hydrochloride]",1200,143,151,–,–,–,–
"NC1(C(=O)Nc2nncs2)CCCC1 [J, 2Cycloleucylamino-1,3,4-thiadiazole.hydrochloride]",–,–,–,165,–,–,153
"CC(C)C[C@@H](N)C(=O)Nc1nncs1 [C, 2D-Leucylamino-1,3,4-thiadiazole.hydrochloride]",–,116,157,> 500,–,–,–
"CSCCC(N)C(=O)Nc1nncs1 (stereo not drawn) [H, 2DL-Methionylamino-1,3,4-thiadiazole.hydrochloride]",–,121,124,> 1600,–,–,–
